Data set [1] addresses DP-IV (Homo sapiens, UniProt P27487). Put plainly: Inhibition / affinity for DP-IV. In kind it is biochemical.
In data set [2] the target is T1, DPIV (Rattus norvegicus, UniProt P14740).
T1 construct: from tissue; host or cells: rat serum
Put plainly: DPIV assays on serum samples from rats. In kind it is in vivo. The note with it: rat serum 1 hour after treatment; Ala-Pro-paranitroanalide substrate, pH 8. The protocol: Four rats were used in this experiment: two females (#3 and #9) and two males (#10 and #11). Blood and plasma samples were collected from rats 1 hour after being treated with Cyclohexylglycine-boroAla. The collected serum samples were evaluated for DPPIV activity of Cyclohexylglycine-boroAla as follows: • 1. 2 mg of Ala-Pro-paranitroanalide (substrate) was dissolved in 20 ml 0.1 M HEPES pH 8, 0.14 M NaCl (buffer). • 2. Serum samples were diluted into substrate solution in the wells of a microtiter plate. For each sample, 10 uL of serum was diluted into 150 μL of substrate. • 3. A reading of the A410 in each well was recorded immediately after the dilution of serum into substrate, and again after approximately 1 hour. The time of data acquisition for each reading is recorded in the data file by the microplate reader software.
The rate of absorbance change was obtained by subtracting the first reading from the second and dividing by the reaction time to give DeltaA410/hr. The DPIV activity was plotted in units of DeltaA410 hr^−1μ^−1.

A short description of data set [3]: In vivo regulation of glucose metabolism.
Data set [4] deals with NOD mice. Put plainly: Incidence of diabetes in NOD mice upon treatment with DPIV inhibitors. In kind it is in vivo. On the procedure: The experiment was started on 8-10 week old NOD mice. The mice were kept under VAF/SPF conditions and fed everyday with either Val-boro-Pro (0.034 mg/kg) or Cyclohexyl-boro-Ala (0.34 mg/kg) for 60 days and then observed for the development of spontaneous diabetes. The mice were tested for the excretion of sugar in urine and considered positive for diabetes when sugar was detected in the urine.

For data set [5] the following is noted: in vivo, cited from earlier work.
[6] abbreviates: chronic (>5 days) treatment, alone.

Chain of DP-IV (P27487 whole entry): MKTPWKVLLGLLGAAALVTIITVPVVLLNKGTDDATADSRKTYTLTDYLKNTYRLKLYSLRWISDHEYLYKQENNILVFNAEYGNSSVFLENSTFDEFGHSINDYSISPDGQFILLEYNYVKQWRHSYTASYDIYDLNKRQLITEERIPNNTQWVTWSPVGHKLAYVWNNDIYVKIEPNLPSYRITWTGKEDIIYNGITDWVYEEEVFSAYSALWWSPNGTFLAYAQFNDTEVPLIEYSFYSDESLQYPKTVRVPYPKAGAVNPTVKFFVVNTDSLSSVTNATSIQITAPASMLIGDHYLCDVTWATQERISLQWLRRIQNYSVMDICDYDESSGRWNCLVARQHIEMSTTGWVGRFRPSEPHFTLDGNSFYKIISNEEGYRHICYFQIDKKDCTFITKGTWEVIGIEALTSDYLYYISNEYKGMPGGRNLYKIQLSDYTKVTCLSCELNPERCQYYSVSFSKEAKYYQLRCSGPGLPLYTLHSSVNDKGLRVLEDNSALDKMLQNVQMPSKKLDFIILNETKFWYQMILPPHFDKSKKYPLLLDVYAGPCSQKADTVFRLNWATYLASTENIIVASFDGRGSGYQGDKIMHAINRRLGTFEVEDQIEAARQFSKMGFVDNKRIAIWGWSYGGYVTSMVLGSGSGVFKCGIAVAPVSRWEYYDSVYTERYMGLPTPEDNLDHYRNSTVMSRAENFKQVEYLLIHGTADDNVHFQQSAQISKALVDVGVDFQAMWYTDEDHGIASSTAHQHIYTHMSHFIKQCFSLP
T1 sequence (P14740 38-767 limits assumed): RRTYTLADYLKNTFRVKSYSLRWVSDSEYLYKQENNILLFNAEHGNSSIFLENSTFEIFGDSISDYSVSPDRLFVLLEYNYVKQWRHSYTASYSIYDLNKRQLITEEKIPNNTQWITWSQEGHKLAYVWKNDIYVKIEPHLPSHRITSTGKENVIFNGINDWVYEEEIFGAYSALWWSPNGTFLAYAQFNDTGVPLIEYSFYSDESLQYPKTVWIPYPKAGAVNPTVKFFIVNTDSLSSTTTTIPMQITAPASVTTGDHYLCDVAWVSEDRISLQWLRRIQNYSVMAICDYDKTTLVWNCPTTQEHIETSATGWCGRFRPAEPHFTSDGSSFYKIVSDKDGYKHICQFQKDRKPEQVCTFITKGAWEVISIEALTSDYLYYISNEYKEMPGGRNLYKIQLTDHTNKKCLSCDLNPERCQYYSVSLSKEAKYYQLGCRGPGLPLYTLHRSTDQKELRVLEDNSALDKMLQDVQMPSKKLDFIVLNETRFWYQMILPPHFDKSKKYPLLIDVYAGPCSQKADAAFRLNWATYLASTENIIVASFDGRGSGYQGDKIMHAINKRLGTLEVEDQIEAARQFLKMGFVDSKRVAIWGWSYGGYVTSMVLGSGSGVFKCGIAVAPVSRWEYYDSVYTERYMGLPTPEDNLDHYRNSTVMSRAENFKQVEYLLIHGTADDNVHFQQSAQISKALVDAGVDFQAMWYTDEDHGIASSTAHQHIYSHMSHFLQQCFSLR

For `CC(NC(=O)OC(C)(C)C)C(=O)N1CCCC1B(O)O` (stereo not drawn) [Boc-blocked Ala-boroPro, Boc-Ala-boroPro], the “affinity for DP-IV” value in data set [1] was “no affinity”.

As to `CC(NC(=O)C(N)C1CCCCC1)B(O)O` (stereo not drawn) [Cyclohexylglycine-boroAla], in data set [2], the “DPIV enzyme activity in serum” value is given as “significantly decreased”.

As to `O=C(C1CCCN1)N1CCCC1B(O)O` (stereo not drawn) [Pro-boro-Pro], in data set [3] (setting [6]), the fasting blood sugars entry is “lowers” and the “glycemic excursion to oral glucose challenge” value is on record as “lowers”. The “response to a subtherapeutic dose of GLP-1” value in data set [3] (single injection) is given as “potentiate the response”. Further, in data set [3] (single injection, alone), the glucose control result was “alone sufficient to improve glucose control”.

On to `CC(C)[C@H](N)C(=O)N1CCC[C@H]1B(O)O` [Val-boro-Pro], for which the “recovery of mice that showed signs of diabetes” value in data set [4] (0.034 mg/kg fed every day for 60 days) is “some of the mice that showed signs of diabetes got better and recovered”. For the same molecule, the “incidence of Diabetes” value in data set [4] (0.034 mg/kg fed every day for 60 days, end of the experiment) was “low incidence of Diabetes”. Moreover, the “general health compared to the other groups” value in data set [4] (end of the experiment) is given as “generally good health”.

Take L-Ala-L-boroPro-pinacol: in data set [1] (early fraction vs later fractions at equal concentrations), the “extent of DP-IV inhibition, silica gel fractions compared” value is “inhibits DP-IV to a greater extent than later fractions”.

On to glucagon-like peptide-1 [GLP-1], for which the degradation result in data set [5] (iv) is listed as “extensively degraded”. Further, in data set [5] (sc), the degradation without inhibitor entry is on record as “rapidly degraded in a time-dependent manner”.

These data come from patent US8410053B2, “Methods for treating autoimmune disorders, and reagents related thereto” (Trustees of Tufts College, priority 2001, dated 2013).
